According to patent publication US20230181673A1, “TRI-PEPTIDES AND TREATMENT OF METABOLIC, CARDIOVASCULAR AND INFLAMMATORY DISORDERS” (Diapin Therapeutics, LLC, priority 2018, published 2023):
Non-standard residues stand in square brackets, D forms with d. No end group written: not given here.

Tests used:
[1] = test system: plasma lipids, adipokines and cytokines; test: Plasma lipids, adipokines and cytokines in WD-fed apoE−/− mice; type: in vivo; conditions: for Time-dependent increase in plasma TC (baseline to endpoint): 1 week WD baseline vs 12 weeks of treatment; for Endpoint plasma HDL / Endpoint plasma LDL, reduced by / Endpoint plasma TC, reduced by: 6 hour fast; for Endpoint plasma HDL / Endpoint plasma LDL, reduced by / Endpoint plasma TC, reduced by / Plasma levels of glycine-containing tripeptide molecule, lower by: vs WD+H2O; for Plasma levels of glycine-containing tripeptide molecule, lower by: 12 weeks, glycine 0.67, DT-109/DT-110 1 mg/g; for Plasma HDL (lipid profile): endpoint (FIG. 15I); for Plasma glycine-containing tripeptide molecule: endpoint (FIG. 15K)
Description: (§1) Eight-week-old male apolipoprotein E-deficient (apoE−/−) mice (B6.129P2-Apoetm1Unc/J, Stock No.: 002052) were obtained from Jackson Laboratories. Mice were fed Western diet (WD, 42% of calories from fat and 0.2% cholesterol by weight, Envigo TD.88137). After one week of WD feeding, blood was carefully collected from the facial vein to determine baseline plasma levels of total cholesterol (TC). […] All mice were maintained on a 12-hour light/dark cycle and had ad libitum access to food and water. Body weight and food intake were measured every one and three weeks, respectively
Plasma levels of glycine tripeptide molecule, resistin, interleukin-6 (IL-6) and monocyte chemoattractant protein-1 (MCP1) were measured with a Luminex 200 chemistry analyzer (Luminex Corporation) at the Chemistry Laboratory of the MDRC using manufacturer-provided assay reagents and protocols (Millipore Multiplex, MMHMAG-44K). […]

NASH-diet-induced HS = type: in vivo, mice; conditions: endpoint
Method: Frozen section processing was used for Oil Red O (ORO) staining. Formalin-fixed liver samples were cryoprotected in 20% sucrose at 4° C. overnight, blotted, then liquid nitrogen-snap frozen in O.C.T. Compound (Tissue-Tek, Cat #4583) and stored at −80° C. until ready for cryosectioning. Prior to sectioning, frozen blocks were brought up to about −20° C., then sectioned at 5 μm on a Cryotome SME (Thermo-Shandon, Cat #77200227). Slides were stored at −80° C. until stained. Prior to staining, liver slides were thawed to room temperature for 30 min. Slides were post-fixed in 10% Neutral Buffered Formalin for 20 min, rinsed in DDW, followed by rinsing in 60% Isopropanol before being placed in working ORO-isopropanol stain (Rowley Biochemical Inc., H-503-1B) for 5 min. Slides were then rinsed in 60% Isopropanol followed by three changes of DDW. Then, slides were nuclear counterstained in Harris Hematoxylin and mounted in Aqua-Mount (Lerner Laboratories, Cat #13800) aqueous mounting media.
Livers were rapidly removed from the euthanized mice, snap-frozen with liquid nitrogen, and kept at −80° C. Frozen liver samples (100 mg) were homogenized in PBS and centrifuged (14,000 RPM, 20 min). The supernatants were collected and analyzed for protein content using Bio-Rad Bradford assay. To assess liver lipid composition, lipids were extracted from the supernatants using hexane (≥99%, Sigma-Aldrich 32293) and isopropanol (≥99.5%, Fisher Scientific A428-4) at a 3:2 ratio (v:v), and the hexane phase was left for evaporation for 48 h. […] Liver diacylglycerols (DAG) were determined using ELISA Kit (Aviva Systems Biology, OKEH02607), according to the manufacturer's instructions. Hepatic TG, TC and DAG data were normalized to protein levels.
Mice fed CD and administered H2O served as control.

[2] = test system: adipose tissue gene expression; test: qPCR of inflammatory cytokines in epididymal and subcutaneous adipose tissue of WD-fed apoE−/− mice; type: in vivo; conditions: endpoint
Description: as §1
Total RNA from liver or adipose tissue samples was extracted using QIAGEN's RNeasy kits (QIAGEN). RNA was reverse-transcribed into cDNA with SuperScript III and random primers (Invitrogen). Specific transcript levels were assessed by a real-time PCR system (Bio-Rad) using IQ SYBR Green Supermix (Bio-Rad) and the ΔΔCt threshold cycle method of normalization. Gene expression levels were normalized to glyceraldehyde 3-phosphate dehydrogenase (GAPDH). Primer pairs used for qPCR were obtained from Integrated DNA Technologies and are listed below: […]

[3] = Body weight, food intake and adiposity in apoE−/− mice fed Western diet; type: in vivo; conditions: apoE−/− mice on WD; for Total gain in body weight from baseline to endpoint, lower by: 12 weeks oral gavage, DT-109 1 mg/g; for Gross appearance of the peritoneal cavities at endpoint (yellowish coloration of the liver, enlarged visceral fat pads): glycine 0.67, leucine 0.33, DT-109/DT-110 1 mg/g; for Adipocyte hypertrophy in EAT and SAT: H&E histology (FIG. 15L)
Description: as §1, with “All animal procedures were approved by the Institutional Animal Care & Use Committee of the University of Michigan (PRO00008239) and performed in accordance with the institutional guidelines. Eight-week-old” for “Eight-week-old”
The experimental design is depicted in FIG. 1A. After one week of Western diet (WD) feeding to apoE−/− mice, blood was collected from the facial vein (FV) to determine baseline plasma levels of TC.
Animal procedures were approved (PRO00008239) by the Institutional Animal Care & Use Committee of the University of Michigan (U-M) and performed in accordance with the institutional guidelines. Seven weeks-old C57BL/6J or apoE−/− mice (B6.129P2-Apoetm1Unc/J, Stock:002052) were from Jackson Laboratories. AGXT1−/− mice on C57BL/6J background were generated using CRISPR/Cas9, with guide-RNA targeting exon 1 of AGXT1: 5′-[…]-3′.
Histological procedures were performed by technicians blinded to the experimental groups at the In Vivo Animal Core (IVAC) Histology Laboratory, University of Michigan. Formalin-fixed tissues were processed through graded alcohols and cleared with xylene followed by infiltration with molten paraffin using an automated VIP5 or VIP6 tissue processor (TissueTek, Sakura-Americas). Using a Histostar Embedding Station (ThermoFisher Scientific), tissues were then sectioned on a M355S rotary microtome (ThermoFisher Scientific) at 4 μm thickness and mounted on glass slides. Slides were stained for hematoxylin and eosin (H&E, ThermoFisher Scientific). For Sirius Red staining, slides were treated with 0.2 phosphomolybdic acid for 3 min and transferred to 0.1% Sirius Red saturated in picric acid (Rowley Biochemical Inc.) for 90 min, then transferred to 0.01N hydrochloric acid for 3 min.

| Compound | Time-dependent increase in plasma TC (baseline to endpoint) [1] | Endpoint plasma HDL [1] | Endpoint plasma LDL, reduced by [1] | Endpoint plasma TC, reduced by [1] | Plasma levels of glycine-containing tripeptide molecule, lower by ([1]; apoE−/− mice on WD) | Plasma HDL (lipid profile) ([1]; apoE−/− mice on WD) | Plasma glycine-containing tripeptide molecule ([1]; apoE−/− mice on WD) | Plasma MCP1 levels ([1]; endpoint) | HS by ORO and lipid quantification (NASH-diet-induced HS) | MCP1 expression in EAT and SAT [2] | Total gain in body weight from baseline to endpoint, lower by ([3]; glycine 0.67 mg/g, vs WD+H2O) | Gross appearance of the peritoneal cavities at endpoint (yellowish coloration of the liver, enlarged visceral fat pads) ([3]; 12 weeks) | Adipocyte hypertrophy in EAT and SAT [3] | Endpoint body weight, lower by ([3]; oral gavage 6 times per week, 12 weeks, glycine 0.67 mg/g, vs WD+H2O) | Plasma TC and LDL (lipid profile) ([1]; apoE−/− mice on WD, DT-109 1 mg/g/day, endpoint) | Liver diacylglycerols (DAG) (NASH-diet-induced HS; 0.5 mg/g/day DT-109) | TNFα expression in EAT [2] |
| --- | --- | --- | --- | --- | --- | --- | --- | --- | --- | --- | --- | --- | --- | --- | --- | --- | --- |
| NCC(=O)O [glycine, reference compound] | significantly attenuated | 35% | 30% | 19% | 53% | reduction in HDL | reduced | significantly reduced | significantly attenuated | significantly suppressed | 51% | attenuated | reduced | 12% |  |  |  |
| CC(C)C[C@H](N)C(=O)O [leucine] |  |  |  |  |  |  |  |  | marked HS |  |  | yellowish coloration of the liver and enlarged visceral fat pads |  |  |  |  |  |
| Gly-Gly-Leu [DT-109] | significantly attenuated | preserved | 38% | 25% | 62% | without the reduction in HDL | reduced | significantly reduced | significantly attenuated | significantly suppressed | 28% | attenuated | reduced |  | lowest TC and LDL | significantly reduced |  |
| Gly-Gly-[dL] [DT-110] |  |  |  |  | 56% |  |  | significantly reduced |  | significantly suppressed |  | attenuated |  |  |  |  | most significant effects |
